In patent US20150104430A1, “Methods and Compositions for Generating Pancreatic Progenitors and Functional Beta Cells from hPSCs” (University Health Network, priority 2012, published 2015):

Legend:
[1] = test system: human ES cell line: H9 (WA09); assay: Percentage of NKX6-1+ cells after stage 4 treatment of H9 (WA09)-derived endodermal cells; assay type: cell-based; settings: day 13 of differentiation, treatment at stage 4
[2] = test system: human fetal pancreatic cells; settings: Otonkoski et al., 1993; cited from earlier work

Molecule: NC(=O)c1cccnc1 [Nicotinamide (NA), Nicotinamide]
- Percentage of NKX6-1+ cells [1]: 14.0%
- induction of endocrine differentiation [2]: potent inducer of endocrine differentiation

Molecule: EGF [EGF (E)]
- Percentage of NKX6-1+ cells [1]: 18.5%

B1: Noggin (protein, UniProt Q13253 28-232, looked up)
Noggin: QHYLHIRPAPSDNLPLVDLIEHPDPIFDPKEKDLNETLLRSLLGGHYDPGFMATSPPEDRPGGGGGAAGGAEDLAELDQLLRQRPSGAMPSEIKGLEFSEGLAQGKKQRLSKKLRRKLQMWLWSQTFCPVLYAWNDLGSRFWPRYVKVGSCFSKRSCSVPEGMVCKPSKSVHLTVLRWRCQRRGGQRCGWIPIQYPIISECKCSC
notes: bone morphogenetic protein antagonist having Gene ID: 9241
- Percentage of NKX6-1+ cells [1]: 21.7%
